Experiments:
Type in all cases: in vivo
[1] = system: Echinochloa oryzacola Vasing.; assay: Test Example 1: herbicidal activity, application before weed generation in submerged conditions (symbol A); conditions: application herbicide amount 320 g/ha
In short: (§1)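 Steps: alluvial soil flooded to 4 cm; weed seeds sown together; rice seedlings (2.5 leaf) transplanted; diluted emulsion applied to water surface the same day as sowing; plants grown at 25–30 °C in greenhouse; herbicidal effect rated on a 0–5 scale at 3 weeks.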

Scirpus juncoides = assay: Test Example 1: herbicidal activity, application before weed generation in submerged conditions (symbol B); conditions: application herbicide amount 320 g/ha
In short: as §1

Monochoria vaginalis = assay: Test Example 1: herbicidal activity, application before weed generation in submerged conditions (symbol C); conditions: application herbicide amount 320 g/ha
In short: as §1

transplanted rice plant = assay: Test Example 1: effect on crop, application before weed generation in submerged conditions (symbol a); conditions: application herbicide amount 320 g/ha
In short: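 Rice at 2.5 leaf stage transplanted into submerged soil (4 cm depth) sown with three weed species; herbicide applied before weed emergence.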

[2] = system: directly sowed rice plant; assay: Test Example 3: effect on crop by foliage application, Wagner pot (symbol b); conditions: application herbicide amount 320 g/ha; for b (directly sowed rice plant) effect on crop grade: Table 24
In short: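 Greenhouse culture at 25–30 °C of seeded rice, Cyperus difformis, Leptochloa chinensis and Echinochloa crus-galli var. crus-galli, in alluvial soil held under 0.1–0.5 cm of water in a Wagner pot.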

Setaria viridis = assay: Test Example 4: herbicidal effect by soil treatment (symbol G); conditions: for G: Setaria viridis, herbicidal effect grade: 320 g/ha; for Herbicidal effect grade, G: Setaria viridis: application herbicide amount 320 g/ha
In short: (§2)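 Seeds were sown in sterilized diluvial soil, covered with about 1.5 cm of soil, and the soil surface was sprayed with a water-diluted emulsion of the compound at a predetermined rate. Plants grew in a greenhouse at 25° C. to 30° C.; effects were scored visually 3 weeks after application.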

Apera spica-venti [3] = assay: Test Example 4: herbicidal effect by soil treatment (symbol L); conditions: for L: Apera spica-venti, herbicidal effect grade: 320 g/ha; for Herbicidal effect grade, L: Apera spica-venti: application herbicide amount 320 g/ha
In short: as §2

Abutilon theophrasti = assay: Test Example 4: herbicidal effect by soil treatment (symbol M); conditions: for M: Abutilon theophrasti, herbicidal effect grade: 320 g/ha; for Herbicidal effect grade, M: Abutilon theophrasti: application herbicide amount 320 g/ha
In short: as §2

Stellaria media = assay: Test Example 4: herbicidal effect by soil treatment (symbol P); conditions: for P: Stellaria media, herbicidal effect grade: 320 g/ha; for Herbicidal effect grade, P: Stellaria media: application herbicide amount 320 g/ha
In short: as §2

Veronica persica = assay: Test Example 4: herbicidal effect by soil treatment (symbol R); conditions: for R: Veronica persica, herbicidal effect grade: 320 g/ha; for Herbicidal effect grade, R: Veronica persica: application herbicide amount 320 g/ha
In short: as §2

Digitaria ciliaris = assay: Test Example 5: herbicidal effect by foliage application, plastic box (symbol F); conditions: 320 g/ha, 3 weeks after application
In short: (§3)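 Herbicide, formulated as an emulsion and diluted in water, is sprayed onto the aerial parts of 14-day seedlings. These were grown at 25° C. to 30° C. in sterilized diluvial soil; effects are graded after 3 weeks.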

Avena fatua = assay: Test Example 5: herbicidal effect by foliage application, plastic box (symbol I); conditions: 320 g/ha, 3 weeks after application
In short: as §3

Lolium multiflorum Lam. = assay: Test Example 5: herbicidal effect by foliage application, plastic box (symbol K); conditions: 320 g/ha, 3 weeks after application
In short: as §3

Apera spica-venti [4] = assay: Test Example 5: herbicidal effect by foliage application, plastic box (symbol L); conditions: 320 g/ha, 3 weeks after application
In short: as §3

Galium spurium = assay: Test Example 5: herbicidal effect by foliage application, plastic box (symbol Q); conditions: 320 g/ha, 3 weeks after application
In short: as §3

wheat = assay: Test Example 5: effect on crop by foliage application, plastic box (symbol e); conditions: 320 g/ha, 3 weeks after application
In short: (§4)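 Soil: sterilized diluvial. Container: plastic box, 21 × 13 cm, 7 cm deep. Sowing: spot-like, ~1.5 cm cover. Growth: greenhouse, 25° C. to 30° C.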

rapeseed = assay: Test Example 5: effect on crop by foliage application, plastic box (symbol g); conditions: 320 g/ha, 3 weeks after application
In short: as §4

SMILES	Herbicidal effect grade, A: Echinochloa oryzacola Vasing. [1]	Herbicidal effect grade, B: Scirpus juncoides (Scirpus juncoides)	Herbicidal effect grade, C: Monochoria vaginalis (Monochoria vaginalis)	A (Echinochloa oryzacola Vasing.) herbicidal effect grade [1]	B (Scirpus juncoides) herbicidal effect grade (Scirpus juncoides)	C (Monochoria vaginalis) herbicidal effect grade (Monochoria vaginalis)	a (transplanted rice plant) effect on crop grade (transplanted rice plant)	b (directly sowed rice plant) effect on crop grade [2]	Herbicidal effect grade, G: Setaria viridis (Setaria viridis)	Herbicidal effect grade, L: Apera spica-venti (Apera spica-venti [3])	Herbicidal effect grade, M: Abutilon theophrasti (Abutilon theophrasti)	Herbicidal effect grade, P: Stellaria media (Stellaria media)	Herbicidal effect grade, R: Veronica persica (Veronica persica)	F: Digitaria ciliaris, herbicidal effect grade (Digitaria ciliaris)	I: Avena fatua, herbicidal effect grade (Avena fatua)	K: Lolium multiflorum Lam., herbicidal effect grade (Lolium multiflorum Lam.)	L: Apera spica-venti, herbicidal effect grade (Apera spica-venti [4])	Q: Galium spurium, herbicidal effect grade (Galium spurium)	e: wheat, effect on crop grade (wheat)	g: rapeseed, effect on crop grade (rapeseed)	other results
CON=C(C)CC1CC(OC(=O)c2nsc(Cl)c2Cl)=C(c2c(C)cc(C)cc2C)C1=O (stereo not shown) [1-099]	5 (Herbicidal ratio of 90% or more (almost completely withered))	4 (Herbicidal ratio of 70% or higher and lower than 90%)	2 (Herbicidal ratio of 20% or higher and lower than 40%)																		Effect grade on crop, a: transplanted rice plant (transplanted rice plant): 5 (Herbicidal ratio of 90% or more (almost completely withered)); effect on crop b (directly sowed rice plant), grade 0-5 [2]: 5 (Herbicidal ratio of 90% or more (almost completely withered)); G: Setaria viridis, herbicidal effect grade (Setaria viridis): 5 (Herbicidal ratio of 90% or more (almost completely withered)); L: Apera spica-venti, herbicidal effect grade (Apera spica-venti [3]): 5 (Herbicidal ratio of 90% or more (almost completely withered)); M: Abutilon theophrasti, herbicidal effect grade (Abutilon theophrasti): 5 (Herbicidal ratio of 90% or more (almost completely withered)); P: Stellaria media, herbicidal effect grade (Stellaria media): 0 (Herbicidal ratio of 5% or lower (almost no effect)); R: Veronica persica, herbicidal effect grade (Veronica persica): 0 (Herbicidal ratio of 5% or lower (almost no effect)); F: Digitaria ciliaris, herbicidal effect (criteria 0-5) (Digitaria ciliaris): 5 (Herbicidal ratio of 90% or more (almost completely withered)); I: Avena fatua, herbicidal effect (criteria 0-5) (Avena fatua): 5 (Herbicidal ratio of 90% or more (almost completely withered)); K: Lolium multiflorum Lam., herbicidal effect (criteria 0-5) (Lolium multiflorum Lam.): 5 (Herbicidal ratio of 90% or more (almost completely withered)); L: Apera spica-venti, herbicidal effect (criteria 0-5) (Apera spica-venti [4]): 5 (Herbicidal ratio of 90% or more (almost completely withered)); Q: Galium spurium, herbicidal effect (criteria 0-5) (Galium spurium): 3 (Herbicidal ratio of 40% or higher and lower than 70%); e: wheat, effect on crop (criteria 0-5) (wheat): 5 (Herbicidal ratio of 90% or more (almost completely withered)); g: rapeseed, effect on crop (criteria 0-5) (rapeseed): 5 (Herbicidal ratio of 90% or more (almost completely withered))
Cc1cc(C)c(C2=C(O)CC(CC(=NOCC(F)(F)F)C3CC3)C2=O)c(C)c1 (stereo not shown) [1-131]	5 (Herbicidal ratio of 90% or more (almost completely withered))	4 (Herbicidal ratio of 70% or higher and lower than 90%)	1 (Herbicidal ratio of 5% or higher and lower than 20%)																		Effect grade on crop, a: transplanted rice plant (transplanted rice plant): 4 (Herbicidal ratio of 70% or higher and lower than 90%); effect on crop b (directly sowed rice plant), grade 0-5 [2]: 5 (Herbicidal ratio of 90% or more (almost completely withered)); G: Setaria viridis, herbicidal effect grade (Setaria viridis): 5 (Herbicidal ratio of 90% or more (almost completely withered)); L: Apera spica-venti, herbicidal effect grade (Apera spica-venti [3]): 5 (Herbicidal ratio of 90% or more (almost completely withered)); M: Abutilon theophrasti, herbicidal effect grade (Abutilon theophrasti): 0 (Herbicidal ratio of 5% or lower (almost no effect)); P: Stellaria media, herbicidal effect grade (Stellaria media): 0 (Herbicidal ratio of 5% or lower (almost no effect)); R: Veronica persica, herbicidal effect grade (Veronica persica): 3 (Herbicidal ratio of 40% or higher and lower than 70%); F: Digitaria ciliaris, herbicidal effect (criteria 0-5) (Digitaria ciliaris): 0 (Herbicidal ratio of 5% or lower (almost no effect)); I: Avena fatua, herbicidal effect (criteria 0-5) (Avena fatua): 4 (Herbicidal ratio of 70% or higher and lower than 90%); K: Lolium multiflorum Lam., herbicidal effect (criteria 0-5) (Lolium multiflorum Lam.): 5 (Herbicidal ratio of 90% or more (almost completely withered)); L: Apera spica-venti, herbicidal effect (criteria 0-5) (Apera spica-venti [4]): 5 (Herbicidal ratio of 90% or more (almost completely withered)); Q: Galium spurium, herbicidal effect (criteria 0-5) (Galium spurium): 0 (Herbicidal ratio of 5% or lower (almost no effect)); e: wheat, effect on crop (criteria 0-5) (wheat): 2 (Herbicidal ratio of 20% or higher and lower than 40%); g: rapeseed, effect on crop (criteria 0-5) (rapeseed): 5 (Herbicidal ratio of 90% or more (almost completely withered))
CC(CC1CC(O)=C(c2c(C)cc(-n3cc(Cl)cn3)cc2C)C1=O)=NOCC(F)(F)F (stereo not shown) [9-010]				5 (Herbicidal ratio of 90% or more (almost completely withered))	5 (Herbicidal ratio of 90% or more (almost completely withered))	4 (Herbicidal ratio of 70% or higher and lower than 90%)	5 (Herbicidal ratio of 90% or more (almost completely withered))	5 (Herbicidal ratio of 90% or more (almost completely withered))	5 (Herbicidal ratio of 90% or more (almost completely withered))	5 (Herbicidal ratio of 90% or more (almost completely withered))	0 (Herbicidal ratio of 5% or lower (almost no effect))	0 (Herbicidal ratio of 5% or lower (almost no effect))	0 (Herbicidal ratio of 5% or lower (almost no effect))	5 (Herbicidal ratio of 90% or more (almost completely withered))	4 (Herbicidal ratio of 70% or higher and lower than 90%)	5 (Herbicidal ratio of 90% or more (almost completely withered))	5 (Herbicidal ratio of 90% or more (almost completely withered))	3 (Herbicidal ratio of 40% or higher and lower than 70%)	0 (Herbicidal ratio of 5% or lower (almost no effect))	3 (Herbicidal ratio of 40% or higher and lower than 70%)	
CC#Cc1cc(C)c(C2=C(O)CC(CC(C)=NOCC(F)(F)F)C2=O)c(C)c1 (stereo not shown) [9-011]				5 (Herbicidal ratio of 90% or more (almost completely withered))	5 (Herbicidal ratio of 90% or more (almost completely withered))	4 (Herbicidal ratio of 70% or higher and lower than 90%)	5 (Herbicidal ratio of 90% or more (almost completely withered))	5 (Herbicidal ratio of 90% or more (almost completely withered))	5 (Herbicidal ratio of 90% or more (almost completely withered))	5 (Herbicidal ratio of 90% or more (almost completely withered))	3 (Herbicidal ratio of 40% or higher and lower than 70%)	0 (Herbicidal ratio of 5% or lower (almost no effect))	0 (Herbicidal ratio of 5% or lower (almost no effect))	5 (Herbicidal ratio of 90% or more (almost completely withered))	5 (Herbicidal ratio of 90% or more (almost completely withered))	5 (Herbicidal ratio of 90% or more (almost completely withered))	5 (Herbicidal ratio of 90% or more (almost completely withered))	1 (Herbicidal ratio of 5% or higher and lower than 20%)	5 (Herbicidal ratio of 90% or more (almost completely withered))	4 (Herbicidal ratio of 70% or higher and lower than 90%)	
CC(CC1CC(OC(=O)COc2ccccc2)=C(c2c(C)cc(-n3cc(Cl)cn3)cc2C)C1=O)=NOCC(F)(F)F (stereo not shown) [9-012]				5 (Herbicidal ratio of 90% or more (almost completely withered))	4 (Herbicidal ratio of 70% or higher and lower than 90%)	2 (Herbicidal ratio of 20% or higher and lower than 40%)	5 (Herbicidal ratio of 90% or more (almost completely withered))	5 (Herbicidal ratio of 90% or more (almost completely withered))	5 (Herbicidal ratio of 90% or more (almost completely withered))	5 (Herbicidal ratio of 90% or more (almost completely withered))	0 (Herbicidal ratio of 5% or lower (almost no effect))	0 (Herbicidal ratio of 5% or lower (almost no effect))	2 (Herbicidal ratio of 20% or higher and lower than 40%)	5 (Herbicidal ratio of 90% or more (almost completely withered))	5 (Herbicidal ratio of 90% or more (almost completely withered))	5 (Herbicidal ratio of 90% or more (almost completely withered))	5 (Herbicidal ratio of 90% or more (almost completely withered))	4 (Herbicidal ratio of 70% or higher and lower than 90%)	2 (Herbicidal ratio of 20% or higher and lower than 40%)	3 (Herbicidal ratio of 40% or higher and lower than 70%)	
